From patent publication US11980596B2 (priority 2017, dated 2024)
Like-named read-outs stand apart in the source and are kept apart here.

Experiments:
pregnant rats and pups = experiment: Pre- and postnatal study, intranasal esketamine, pregnant rats; format: in vivo, rat
Method: (§1) This sensory/motor developmental measure was tested starting on postnatal day (PND) 9, and the effect normalized by PND 19 in treatment groups as compared with PND 14 for the majority of the control animals. There is no NOAEL for this delay in sensory/motor response observed in pups during the preweaning period.

[1] = as above; format: in vivo, rat; settings: female, rat, in vivo, inhaled or intranasal; intranasal; pregnancy and lactation; read-out: NOAEL for maternal toxicity and decreased motor activity during the postweaning period
Method: as §1

[2] = single dose; 72 mg
Method: (§2) This study includes a single dose and 14-day repeated dose neurotoxicity studies with intranasally administered esketamine in female rats 12 to 14 weeks of age. These studies were conducted to investigate whether single or repeated intranasal administrations of esketamine induced neurodegenerative changes in the rat brain. The study results were used to estimate an esketamine exposure-based safety margin compared with the maximum dose of esketamine administered intranasally to depressed adult patients in clinical trials.
The vehicle- and the 36 and 54 mg-dosed groups consisted of 24 animals per group, while the 72 mg-dosed and positive control groups involved 30 animals per group. Four satellite animals were added to the esketamine HCl-dosed groups of main study animals for toxicokinetic (TK) purposes. In these animals the plasma exposure to esketamine was measured on the day of dosing at various time points up to and including 24 hours after the first instillation.

adult subjects with TRD = settings: post dose
Method: The MOAA/S was used to measure treatment-emergent sedation, with correlation to levels of sedation defined by the American Society of Anesthesiologists (ASA) continuum. The MOAA/S scores range from 0=no response to painful stimulus (corresponds to ASA continuum for general anesthesia) to 5=readily responds to name spoken in normal tone (awake; corresponds to ASA continuum for minimal sedation).
On each intranasal dosing day, the MOAA/S was performed every 15 minutes from pre-dose to t=+1.5 hours post-dose. If the score was ≤3 at any time during the 1.5 hours post-dose interval, the MOAA/S was performed every 5 minutes until a score of 4 is reached (at which point a frequency of every 15 minutes can be resumed until t=+1.5 hours post dose). […] For subjects with a score of 4, the assessment was repeated every 15 minutes. […]
The Modified Observer's Assessment of Alertness/Sedation (MOAA/S) was used to measure treatment-emergent sedation with correlation to levels of sedation defined by the American Society of Anesthesiologists (ASA) continuum. The MOAA/S scores ranged from 0 (No response to painful stimulus; corresponds to ASA continuum for general anesthesia) to 5 (Readily responds to name spoken in normal tone [awake]; corresponding to ASA continuum for minimal sedation).

[3] = Pharmacokinetics of intranasal esketamine in healthy subjects (Example 9)
Method: Blood samples (4 mL each) for determination of esketamine and noresketamine plasma concentrations were collected into the appropriate collection tube (e.g., Vacutainer®) at timepoints 0.00, 0.12, 0.20, 0.37, 0.53, 0.67, 0.83, 1.00, 1.25, 1.50, 2.00, 3.00, 4.00, 6.00, 9.00, 12.00, 18.00, and 24.00 h. The total amount of blood to be drawn for clinical laboratory tests and PK evaluations is approximately 327 mL.
Plasma samples were analyzed for esketamine and noresketamine concentrations using the validated, specific and sensitive liquid chromatography coupled to tandem mass spectrometry (LC-MS/MS) achiral method of Example 8.
Serial PK blood samples (4 mL each) were collected for a 24-hour period from each subject (Periods 1, 2, and 3). […] Statistical Methods 1.6.4.1. Sample Size
The following key parameters of esketamine and noresketamine in plasma were calculated using noncompartmental methods and actual sampling times: Cmax, tmax, AUClast, AUC∞, t1/2,λ, and λz.

[4] = Fertility study in male and female rats; format: in vivo, rat; settings: both sexes, rat, in vivo, inhaled or intranasal; read-out: NOAEL for mating and fertility
Method: The No Observed Adverse Effect Level (NOAEL) for mating and fertility is 45 mg/kg/day which is 0.6 times the esketamine exposures at MRHD of 84 mg/day.

[5] = 14-day; 54 mg/day
Method: as §2
Each group of main study animals consisted of 12 female rats. Four satellite animals were added to the esketamine HCl-dosed groups of main study animals for TK purposes. The plasma exposure to esketamine was measured in these animals on the first and the last day of dosing at various time points up to and including 24 hours after the first instillation.

[6] = test system: CYP2B6 and CYP3A4 and to a lesser extent CYP2C9 and CYP2C19; experiment: Metabolism by cytochrome P450 enzymes; settings: human
rat liver cells = experiment: In vivo Comet assay; settings: intravenously-administered
adult female rats = experiment: Second single dose neurotoxicity study (neuronal necrosis), intranasal esketamine (label); settings: 200-gram rat
healthy subjects = experiment: Cardiac electrophysiology (QTc) study; format: in vivo, human
Method: The effect of SPRAVATO (84 mg nasal spray and 0.8 mg/kg esketamine intravenously infused over 40 minutes) on the QTc interval was evaluated in a randomized, double-blind, placebo-, and positive-controlled (moxifloxacin 400 mg), 4-period, crossover study in 60 healthy subjects.

[7] = test system: subjects with MDD at imminent risk for suicide; experiment: SIBAT clinical global judgment of suicide risk ([…]2001); format: in vivo, human
From the text: The clinical global judgment of suicide risk (Module 8) summarizes clinician overall judgment of suicide risk as derived from information gathered from the full SIBAT tool. It operates like numerous other CGI-severity scales that have been used in other psychiatric studies. Change in the clinical global judgment of suicide risk is designed to directly identify clinical meaningful changes in suicidal ideation and to permit classification of suicide risk.
The analysis of the change in SIBAT score was based on an ANCOVA model on ranks of change in SIBAT with treatment, antidepressant therapy, and analysis center as factors, and baseline value (unranked) as a covariate. There was a significant difference (two-sided […]) between the two treatment groups when comparing the mean rank of change from baseline at Day 1: 4-hours postdose in favor of esketamine 84 mg See, Table 58. See, FIG. 39. […] This difference was not evident at the Day 25 DB endpoint. See, FIG. 40, which is based on LOCF data and analyzed using Cochran-Mantel-Haenszel test controlling for analysis center and antidepressant therapy.

[8] = test system: transgenic (Tg.rasH2) mice; experiment: 6-month study in transgenic (Tg.rasH2) mice; format: in vivo, mouse; settings: once-daily subcutaneous up to 75 mg/kg/day (reduced to 40 mg/kg/day during week 17); 6 months
[9] = Clinical pharmacokinetics of esketamine (label)
[10] = human, plasma, other: nasal spray

CN[C@]1(c2ccccc2Cl)CCCCC1=O [esketamine, (S)-2-(2-chlorophenyl)-2-(methylamino)cyclohexanone]
AUC exposure, multiple of the MRHD of 84 mg/day (pregnant rats and pups; 4.5 mg/kg/day intranasal): 0.07 times
AUC exposure, multiple of the MRHD of 84 mg/day (pregnant rats and pups; 15 mg/kg/day intranasal): 0.5 times
AUC exposure, multiple of the MRHD of 84 mg/day (pregnant rats and pups; 45 mg/kg/day intranasal): 0.7 times
NOAEL [1]: 4.5 mg/kg/day
Inhibition potential against CYPs and UGTs (CYPs and UGTs): did not show inhibition potential
AUC-based safety margin compared with the maximum 84 mg clinical dose [2]: ~86 fold
Cmax-based safety margin compared with the maximum 84 mg clinical dose [2]: approximately 60 fold
Sedation (MOAA/S) resolved by (adult subjects with TRD): ≤ 1.5 h
Dose proportionality of mean plasma Cmax and AUC ([3]; 28-mg, 56-mg and 84-mg intranasal regimens): less than dose-proportional
AUC (AUClast and AUC∞) variability ([3]; esketamine): 25.0% to 30.4
Cmax variability (percent coefficient of variation) ([3]; esketamine, across the 3 treatment groups): 35.7% to 36.7
NOAEL [4]: 45 mg/kg/day
AUC-based safety margin compared with the maximum 84 mg clinical dose [5]: ~11 fold
Cmax-based safety margin compared with the maximum 84 mg clinical dose [5]: approximately 17 fold
Metabolic pathway [6]: primarily metabolized to noresketamine metabolite via cytochrome P450 (CYP) enzymes CYP2B6 and CYP3A4
Genotoxicity (rat liver cells): devoid of genotoxic properties
Highest dose equivalent with no findings of neuronal necrosis (adult female rats): 270 mg/kg
Increase in heart rate (healthy subjects; 84 mg nasal spray and 0.8 mg/kg intravenously over 40 minutes): > 10 bpm
QTc prolongation (healthy subjects; therapeutic dose): lack of clinically relevant QTc prolongation
SIBAT Clinical Global Judgment of Suicide Risk: change vs placebo ([7]; 84 mg, Day 1: 4-hours postdose and Day 2): statistically superior
SIBAT Clinical Global Judgment of Suicide Risk, Day 1 (DB): 4H, Median (Range) ([7]; esketamine 84 mg, LOCF, ITT, N = 33): 5.0 (0; 6)
SIBAT Clinical Global Judgment of Suicide Risk, Change from Baseline to Day 1 (DB): 4H, Median (Range) ([7]; esketamine 84 mg, LOCF, ITT, N = 33, negative change = improvement): 0.0 (−6; 1)
SIBAT Clinical Global Judgment of Suicide Risk, Day 2 (DB), Median (Range) ([7]; esketamine 84 mg, LOCF, ITT, N = 35): 5.0 (0; 6)
SIBAT Clinical Global Judgment of Suicide Risk, Change from Baseline to Day 2 (DB), Median (Range) ([7]; esketamine 84 mg, LOCF, ITT, N = 35, negative change = improvement): −1.0 (−6; 1)
SIBAT Clinical Global Judgment of Suicide Risk, Baseline (DB), Median (Range) ([7]; esketamine 84 mg, predose Day 1, ITT, N = 35): 6.0 (5; 6)
Incidence of tumors [8]: did not increase the incidence of tumors
Time to reach maximum plasma concentration ([9]; after the last nasal spray of a treatment session): 20 to 40 min
Presence in human milk ([9]; human, in vivo): present in human milk
bioavailability ([9]; human, plasma, inhaled or intranasal): ~48%
clearance ([9]; human, plasma, iv): ~1480 mL/min
Inter-subject variability, AUC∞ [9, 10]: 18% to 45
Inter-subject variability, Cmax [9, 10]: 27% to 66
Intra-subject variability, AUC∞ [9, 10]: ~10%
Intra-subject variability, Cmax [9, 10]: approximately 15%
Dose excreted as unchanged drug in urine ([9]; nasal): Less than 1%
Accumulation in plasma ([9]; twice a week administration): No accumulation
